{
  "source": "patent US10874687B1",
  "about": "(Atea Pharmaceuticals, Inc., priority 2020, dated 2020)",
  "key": {"HCoV-229E [1]": {"test_system": "HCoV-229E", "experiment": "microbe, parasite or virus in culture", "format": "cell-based, human coronavirus alpha-229E"}, "HCoV-OC43 [2]": {"test_system": "HCoV-OC43", "experiment": "microbe, parasite or virus in culture", "format": "cell-based, human coronavirus beta-OC43", "conditions": "Betacoronavirus 1, OC43, Huh-7, read-out: VYR EC90"}, "HCoV-OC43 [3]": {"test_system": "HCoV-OC43", "experiment": "microbe, parasite or virus in culture", "format": "cell-based, human coronavirus beta-OC43"}, "MERS-CoV (EMC)": {"test_system": "MERS-CoV (EMC)", "experiment": "microbe, parasite or virus in culture", "format": "cell-based"}, "SARS-CoV (Urbani)": {"test_system": "SARS-CoV (Urbani)", "experiment": "microbe, parasite or virus in culture", "format": "cell-based, SARS-CoV-1"}, "SARS-CoV-2 (WA1)": {"test_system": "SARS-CoV-2 (WA1)", "experiment": "microbe, parasite or virus in culture", "format": "cell-based"}, "HCoV-229E [4]": {"test_system": "HCoV-229E", "experiment": "Protection of BHK-21 cells from virus-induced cytopathogenicity (MTT)", "format": "cell-based, human coronavirus", "conditions": "for EC50: Human coronavirus 229E", "description": "(§1) After a 3-day incubation at 37° C. cell viability was determined by the MTT method as described by Pauwels et al. (J. Virol. Methods 1988, 20, 309-321).\nIn an initial screening, BHK-21 cells acutely infected with a seasonal human alpha coronavirus, HCoV-229E, were exposed to serial dilutions of Compound 1A. […] No toxicity was detected from either drug.\n(§2) BHK-21 cells: Test compounds were dissolved in DMSO at 100 mM and then diluted in Minimum Essential Medium with Earle's salts (MEM-E) containing 1 mM sodium pyruvate and 25 μg/mL kanamycin, supplemented with 10% FBS (growth medium) to final concentrations of 100, 20, 4 and 0.8 μM (two 24-well replica plates each). After BHK-21 cells were grown to confluency in 96-well plates, growth medium was replaced with fresh maintenance medium (growth medium with 1% inactivated FBS in place of 10% FBS) containing serially diluted test compound and HCoV-229E at a multiplicity of infection (MOI) of 0.01. Uninfected cells in the presence of serially diluted compound were used to assess the cytotoxicity of compounds. After a 3-day incubation at 37° C. in a humidified 5% CO2 atmosphere, cell viability was determined by the MTT method (Pauwels, R et al. J. Virol. Methods 20(4):309-321 (1988))."}, "HCoV": {"test_system": "HCoV", "experiment": "Protection of MES-1 cells from virus-induced cytopathogenicity (MTT)", "format": "cell-based", "conditions": "unidentified human coronavirus, 72 h, 50% protection of MES-1 cells, day 3 post-infection", "description": "as §1"}, "[5]": {"experiment": "Cytotoxicity in mock infected BHK-21 cells (MTT)", "format": "cell-based, hamster", "conditions": "hamster", "description": "(§3) To determine the cytotoxicity, cells were seeded at an initial density of 1×10^6 cells/mL in 96 well plates containing Minimum Essential Medium with Earles's salts (MEM-E), L-glutamine, 1 mM sodium pyruvate and 25 mg/L kanamycin, supplemented with 10% fetal bovine serum. Cell cultures were then incubated at 37° C. in a humidified 5% CO2 atmosphere in the absence or presence of serial dilutions of test compounds. Cell viability was determined by the MTT method.\nas §2"}, "mock infected BHK cells": {"test_system": "mock infected BHK cells", "experiment": "Cytotoxicity in mock infected BHK-21 cells (MTT)", "format": "cell-based, hamster", "conditions": "mock infected BHK cells; MTT; 3 days; Table 2B", "description": "as §3, §2"}, "[6]": {"experiment": "Cytotoxicity in mock infected MES-1 cells (MTT)", "format": "cell-based", "conditions": "Table 3A", "description": "as §3"}, "[7]": {"test_system": "mock infected MES-1 cells", "experiment": "Cytotoxicity in mock infected MES-1 cells (MTT)", "format": "cell-based", "conditions": "3 days, Table 3B", "description": "as §3"}, "[8]": {"test_system": "HCoV-229E, HCoV-OC43, SARS-CoV-1 and SARS-CoV-2", "experiment": "organism not typed", "format": "cell-based, human coronaviruses", "conditions": "read-out: individual EC90 values"}, "Huh-7 cells": {"test_system": "Huh-7 cells", "conditions": "human"}, "HCoV-229E [9]": {"test_system": "HCoV-229E", "conditions": "HCoV-229E in MRC-5 cells; cited from earlier work"}, "in vitro [10]": {"experiment": "in vitro", "conditions": "human"}, "in vitro [11]": {"experiment": "in vitro", "conditions": "human", "remark": "listed apart in the source"}, "in vitro [12]": {"experiment": "in vitro", "conditions": "human", "remark": "listed apart in the source"}, "[13]": {"experiment": "Plasma PK of metabolites in non-human primates after oral Compound 2A", "conditions": "cynomolgus, cynomolgus monkey, in vivo, 30 mg/kg"}},
  "note": "Values joined by “and” are separate entries in the source; they are usually repeats but may differ in a detail not shown here. Identical values can stand only once. Like-named read-outs stand apart in the source and are kept apart here. Marks after values point to notes of the source that are not given here.",
  "data": [
    {"smiles": "CNc1nc(N)nc2c1ncn2[C@@H]1O[C@H](CO[P@@](=O)(N[C@@H](C)C(=O)OC(C)C)Oc2ccccc2)[C@@H](O)[C@@]1(C)F", "note": "[Compound 1A]", "values": [
      {"measurement": "Selectivity Index (CC50/EC90)", "setting": "HCoV-229E [1]; HCoV-229E in Huh-7", "value": ">75"},
      {"measurement": "EC50", "setting": "HCoV-229E [1]; Human coronavirus 229E, Huh-7, read-out: Neutral Red Assay EC50", "value": 1700, "unit": "nM"},
      {"measurement": "EC50", "setting": "HCoV-229E [1]; Human coronavirus 229E, Huh-7, read-out: Neutral Red EC50", "value": 1000, "unit": "nM"},
      {"measurement": "EC90", "setting": "HCoV-229E [1]; Human coronavirus 229E, Huh-7, read-out: VYR EC90", "value": 710, "unit": "nM"},
      {"measurement": "EC90", "setting": "HCoV-229E [1]; Human coronavirus 229E, Huh-7, read-out: Virus Yield Reduction Assay EC90", "value": 1000, "unit": "nM"},
      {"measurement": "EC50", "setting": "HCoV-229E [1]; Human coronavirus 229E, Huh-7, read-out: Visual EC50", "value": 1000, "unit": "nM"},
      {"measurement": "EC50", "setting": "HCoV-229E [1]; read-out: Neutral Red Assay EC50", "value": 1600, "unit": "nM"},
      {"measurement": "EC90", "setting": "HCoV-OC43 [2]", "value": 290, "unit": "nM"},
      {"measurement": "EC50", "setting": "HCoV-OC43 [3]; Betacoronavirus 1, OC43, RD, read-out: Neutral Red Assay EC50", "value": 2800, "unit": "nM"},
      {"measurement": "EC90", "setting": "HCoV-OC43 [3]; Betacoronavirus 1, OC43, RD, read-out: Virus Yield Reduction Assay EC90", "value": 2200, "unit": "nM"},
      {"measurement": "Selectivity Index (CC50/EC90)", "setting": "HCoV-OC43 [3]; HCoV-OC43 in RD", "value": ">39"},
      {"measurement": "EC90", "setting": "MERS-CoV (EMC); Middle East respiratory syndrome-related coronavirus, Huh-7, read-out: average EC90, MERS-CoV in Huh-7", "value": 36000, "unit": "nM"},
      {"measurement": "EC90", "setting": "MERS-CoV (EMC); read-out: average EC90, MERS-CoV in Huh-7", "value": 37000, "unit": "nM"},
      {"measurement": "Selectivity Index", "setting": "SARS-CoV (Urbani); CC50/EC90, SARS-CoV (Urbani) in Huh7 cells", "value": ">250"},
      {"measurement": "EC90", "setting": "SARS-CoV (Urbani); Severe acute respiratory syndrome coronavirus, Huh-7, read-out: Virus Yield Reduction Assay EC90", "value": "340 nM and 0.2 µg/mL"},
      {"measurement": "EC90", "setting": "SARS-CoV-2 (WA1); Severe acute respiratory syndrome coronavirus 2, HAE, read-out: EC90 of the single replicates", "value": 570, "unit": "nM"},
      {"measurement": "EC90", "setting": "SARS-CoV-2 (WA1); Severe acute respiratory syndrome coronavirus 2, HAE, read-out: Virus Yield Reduction Assay EC90", "value": "470 nM and 0.37 µg/mL"},
      {"measurement": "EC90", "setting": "SARS-CoV-2 (WA1); Severe acute respiratory syndrome coronavirus 2, HAE, read-out: average EC90", "value": 540, "unit": "nM"},
      {"measurement": "EC90", "setting": "SARS-CoV-2 (WA1); Severe acute respiratory syndrome coronavirus 2, HAE, read-out: replicate EC90 determinations", "value": 0.33, "unit": "µg/mL"},
      {"measurement": "EC90", "setting": "SARS-CoV-2 (WA1); read-out: Virus Yield Reduction Assay EC90", "value": "510 nM and 640 nM"},
      {"measurement": "EC90", "setting": "SARS-CoV-2 (WA1); read-out: average EC90", "value": "500 nM and ~550 nM"},
      {"measurement": "Selectivity Index", "setting": "HCoV-229E [4]; CC50/EC50, HCoV-229E in BHK-21", "value": ">58^c"},
      {"measurement": "EC50", "setting": "HCoV-229E [4]; BHK, 72 h, 50% protection of BHK cells, MTT, day 3 post-infection, Table 2A, read-out: EC50", "value": 1600, "unit": "nM"},
      {"measurement": "EC50", "setting": "HCoV-229E [4]; BHK, 72 h, 50% protection of BHK cells, MTT, day 3 post-infection, Table 2B, read-out: EC50", "value": 2000, "unit": "nM"},
      {"measurement": "EC50", "setting": "HCoV-229E [4]; BHK-21, HCoV-229E in BHK-21, dye staining, average of 2 experiments, Table 5, read-out: EC50", "value": 1800, "unit": "nM"},
      {"measurement": "EC50", "setting": "HCoV-229E [4]; BHK-21, HCoV-229E in BHK-21, the 2 experiments behind the average, read-out: EC50 of the single experiments", "value": 1600, "unit": "nM"},
      {"measurement": "EC50", "setting": "HCoV; Table 3A", "value": 1600, "unit": "nM"},
      {"measurement": "EC50", "setting": "HCoV; Table 3B", "value": 2000, "unit": "nM"},
      {"measurement": "CC50 at 3 days", "setting": "[5]; mock infected BHK-21 cells, mock infected BHK cells, MTT, 3 days, Table 2A", "value": "> 100000", "unit": "nM"},
      {"measurement": "CC50 at 3 days", "setting": "[5]; uninfected BHK-21 cells, BHK-21, Table 5", "value": "> 100000", "unit": "nM"},
      {"measurement": "CC50", "setting": "mock infected BHK cells", "value": "> 100000", "unit": "nM"},
      {"measurement": "CC50 at 3 days", "setting": "[6]", "value": "> 100000", "unit": "nM"},
      {"measurement": "CC50", "setting": "[7]", "value": "> 100000", "unit": "nM"},
      {"measurement": "EC90", "setting": "[8]", "value": "340 to 1200", "unit": "nM"},
      {"measurement": "Neutral Red Assay CC50", "setting": "Huh-7 cells", "value": ">50^ μg/mL"},
      {"measurement": "EC50", "setting": "HCoV-229E [9]", "value": "> 100000", "unit": "nM"},
      {"measurement": "CC50", "setting": "in vitro [10]; Neutral Red Assay CC50", "value": "> 86000", "unit": "nM"},
      {"measurement": "CC50", "setting": "in vitro [10]; Neutral Red CC50", "value": "> 50000", "unit": "nM"},
      {"measurement": "CC50", "setting": "in vitro [10]; Visual CC50", "value": "> 50000", "unit": "nM"},
      {"measurement": "CC50", "setting": "in vitro [11]", "value": "> 86000", "unit": "nM"},
      {"measurement": "CC50", "setting": "in vitro [12]", "value": "> 50", "unit": "µg/mL"},
      {"measurement": "AUC(0-t)", "setting": "[13]", "value": 0.44, "unit": "µM·h"},
      {"measurement": "Cmax", "setting": "[13]", "value": 640, "unit": "nM"},
      {"measurement": "Tmax", "setting": "[13]", "value": "30 to 60", "unit": "min"},
      {"measurement": "half-life", "setting": "[13]", "value": 44.4, "unit": "min"}
    ]}
  ]
}
